Experimental data published in ChEMBL document CHEMBL5370648, “Rational Design of Bioorthogonally Activatable PROTAC for Tumor-Targeted Protein Degradation” (J Med Chem, 2023).
Activity calls are given as the source filed them. The rule behind the calls is not given here.

Assays:
[1] = target: T1, von Hippel-Lindau disease tumor suppressor/Bromodomain-containing protein 4 (Homo sapiens, UniProt O60885+P40337); test: In vivo PROTAC activity at BRD4/VHL E3 ligase in BALB/c nude mouse xenografted with human MCF7 cells assessed as reduction in BRD4 protein level in tumor 20 mg/kg measured after 48 hrs by Western blot analysis; assay type: functional, organism-based
T1 sequence (P40337 whole entry, looked up, other chains not shown): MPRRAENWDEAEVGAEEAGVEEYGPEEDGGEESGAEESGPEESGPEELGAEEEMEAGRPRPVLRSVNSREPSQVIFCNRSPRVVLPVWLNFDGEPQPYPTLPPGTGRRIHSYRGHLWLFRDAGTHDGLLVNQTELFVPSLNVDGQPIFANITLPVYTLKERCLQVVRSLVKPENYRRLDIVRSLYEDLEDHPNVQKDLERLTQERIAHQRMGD

MDA-MB-231 [2] = test: Cytotoxicity against 12 hrs BODIPY-TZ treated human MDA-MB-231 cells assessed as inhbition of cell growth measured after 48 hrs by CCK-8 method; assay type: functional, cell-based
[3] = target: T1, von Hippel-Lindau disease tumor suppressor/Bromodomain-containing protein 4; test: PROTAC activity at BRD4/VHL E3 ligase in 12 hrs BODIPY-TZ treated human T47D cells assessed as activation of caspase-3 expression incubated for 48 hrs by Western blot analysis; assay type: cell-based
[4] = target: von Hippel-Lindau disease tumor suppressor/Bromodomain-containing protein 3 (Homo sapiens) (UniProt Q15059+P40337); test: PROTAC activity at BRD3/VHL E3 ligase in 12 hrs BODIPY-TZ treated human T47D cells assessed as reduction in BRD3 expression at upto 2.0 uM incubated for 48 hrs by Western blot analysis; assay type: cell-based
von Hippel-Lindau disease tumor suppressor/Bromodomain-containing protein 3 (Homo sapiens), sequence (P40337 whole entry partner): as the sequence (P40337 whole entry, looked up, other chains not shown) above
von Hippel-Lindau disease tumor suppressor/Bromodomain-containing protein 3 (Homo sapiens), sequence (Q15059 2-726 limits assumed): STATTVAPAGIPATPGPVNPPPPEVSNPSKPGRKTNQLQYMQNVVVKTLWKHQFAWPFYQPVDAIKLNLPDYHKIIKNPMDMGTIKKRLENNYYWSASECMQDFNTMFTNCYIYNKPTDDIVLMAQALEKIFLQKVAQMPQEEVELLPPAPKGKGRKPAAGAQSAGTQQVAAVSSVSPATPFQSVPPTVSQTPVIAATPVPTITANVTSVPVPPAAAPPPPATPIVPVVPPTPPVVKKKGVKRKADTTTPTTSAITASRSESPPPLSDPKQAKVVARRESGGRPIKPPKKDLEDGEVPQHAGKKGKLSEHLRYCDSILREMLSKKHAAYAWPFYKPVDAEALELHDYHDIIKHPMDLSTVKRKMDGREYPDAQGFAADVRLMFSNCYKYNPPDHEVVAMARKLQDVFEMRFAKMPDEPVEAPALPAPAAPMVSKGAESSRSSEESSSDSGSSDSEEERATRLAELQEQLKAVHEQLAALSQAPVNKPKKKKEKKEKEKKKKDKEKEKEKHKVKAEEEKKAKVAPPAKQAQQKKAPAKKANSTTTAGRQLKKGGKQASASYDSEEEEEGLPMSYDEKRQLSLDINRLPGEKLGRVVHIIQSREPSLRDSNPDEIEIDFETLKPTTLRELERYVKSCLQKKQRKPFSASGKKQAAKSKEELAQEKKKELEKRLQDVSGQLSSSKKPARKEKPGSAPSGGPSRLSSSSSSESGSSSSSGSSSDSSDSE

[5] = target: T1, von Hippel-Lindau disease tumor suppressor/Bromodomain-containing protein 4; test: PROTAC activity at BRD4/VHL E3 ligase in 12 hrs BODIPY-TZ treated human MDA-MB-231 cells assessed as suppression of c-Myc expression incubated for 48 hrs by Western blot analysis; assay type: cell-based
[6] = target: T1, von Hippel-Lindau disease tumor suppressor/Bromodomain-containing protein 4; test: PROTAC activity at BRD4/VHL E3 ligase in 12 hrs BODIPY-TZ treated human MDA-MB-231 cells assessed as activation of caspase-3 expression incubated for 48 hrs by Western blot analysis; assay type: cell-based
MCF7 [7] = test: Antitumor activity against human MCF7 cells xenografted in BALB/c nude mouse assessed as fold increase in tumor volume at 20 mg/kg measured at day 23 post injection; assay type: functional; conditions: time 23 day
MCF7 [8] = test: Antitumor activity against IR808-TZ treated human MCF7 cells xenografted in BALB/c nude mouse assessed as tumor growth inhibition at 20 mg/kg measured after 16 days; assay type: functional, organism-based; conditions: time 16.0 day
T47D [9] = test: Cytotoxicity against 12 hrs BODIPY-TZ treated human T47D cells assessed as inhbition of cell growth measured after 48 hrs by CCK-8 method; assay type: functional, cell-based
[10] = target: T1, von Hippel-Lindau disease tumor suppressor/Bromodomain-containing protein 4; test: PROTAC activity at BRD4/VHL E3 ligase in human MCF7 cells assessed as induction of degradation of intracellular BRD4 at 200 nM incubated for 48 hrs by immunofluorescence staining assay; assay type: cell-based
[11] = target: T1, von Hippel-Lindau disease tumor suppressor/Bromodomain-containing protein 4; test: PROTAC activity at BRD4/VHL E3 ligase in 12 hrs BODIPY-TZ treated human T47D cells assessed as induction of degradation of BRD4 at upto 1000 nM incubated for 48 hrs in presence of MLN4924 by immunofluorescence staining assay; assay type: cell-based
MCF7 [12] = test: Antitumor activity against IR808-TZ treated human MCF7 cells xenografted in BALB/c nude mouse assessed as fold increase in tumor volume at 20 mg/kg measured at day 23 post injection; assay type: functional; conditions: time 23 day
[13] = Retention time of the compound by HPLC method; assay type: physicochemical
[14] = target: T1, von Hippel-Lindau disease tumor suppressor/Bromodomain-containing protein 4; test: PROTAC activity at BRD4/VHL E3 ligase in human MDA-MB-231 cells assessed as decrease in BRD4 expression at upto 2.0 uM incubated for 48 hrs by Western blot analysis; assay type: cell-based
MCF7 [15] = test: Cytotoxicity against 12 hrs BODIPY-TZ treated human MCF7 cells assessed as inhbition of cell growth measured after 48 hrs by CCK-8 method; assay type: functional, cell-based
MCF7 [16] = test: Antitumor activity against human MCF7 cells xenografted in BALB/c nude mouse assessed as apoptosis at 20 mg/kg measured after 48 hrs in presence of IR808-TZ by Western blot analysis; assay type: functional, organism-based
[17] = target: T1, von Hippel-Lindau disease tumor suppressor/Bromodomain-containing protein 4; test: PROTAC activity at BRD4/VHL E3 ligase in human MDA-MB-231 cells assessed as induction of degradation of intracellular BRD4 at 200 nM incubated for 48 hrs by immunofluorescence staining assay; assay type: cell-based
MDA-MB-231 [18] = test: Cytotoxicity against human MDA-MB-231 cells assessed as inhbition of cell growth measured after 48 hrs by CCK-8 method; assay type: functional, cell-based; conditions: MDA-MB-231, 48 h
[19] = target: T1, von Hippel-Lindau disease tumor suppressor/Bromodomain-containing protein 4; test: PROTAC activity at BRD4/VHL E3 ligase in 12 hrs BODIPY-TZ treated human MDA-MB-231 cells assessed as degradation of BRD4 expression incubated for 48 hrs by Western blot analysis; assay type: cell-based
[20] = target: T1, von Hippel-Lindau disease tumor suppressor/Bromodomain-containing protein 4; test: PROTAC activity at BRD4/VHL E3 ligase in human T47D cells assessed as decrease in BRD4 expression at upto 2.0 uM incubated for 48 hrs by Western blot analysis; assay type: cell-based
[21] = target: T1, von Hippel-Lindau disease tumor suppressor/Bromodomain-containing protein 4; test: PROTAC activity at BRD4/VHL E3 ligase in 12 hrs BODIPY-TZ treated human T47D cells assessed as reduction in BRD4 expression at upto 2.0 uM incubated for 48 hrs by Western blot analysis; assay type: cell-based
[22] = Drug uptake in 12 hrs BODIPY-TZ treated human […] cells assessed as strong fluorescence at 600 nM measured after 30 mins by fluorescence microscopy analysis; assay type: ADME, cell-based; conditions: t47d, 0.5 h, 0.6 µM
MCF7 [23] = test: Antitumor activity against human MCF7 cells xenografted in BALB/c nude mouse assessed as apoptosis at 20 mg/kg measured after 48 hrs by Western blot analysis; assay type: functional, organism-based
MCF7 [24] = test: Cytotoxicity against human MCF7 cells assessed as inhbition of cell growth measured after 48 hrs by CCK-8 method; assay type: functional, cell-based; conditions: MCF7, 48 h
[25] = Toxicity in BALB/c nude mouse assessed as animal death at 10 mg/kg measured after 16 days in presence of IR808-TZ; assay type: organism-based; conditions: in vivo, 384 h, time 16 day
[26] = target: T1, von Hippel-Lindau disease tumor suppressor/Bromodomain-containing protein 4; test: PROTAC activity at BRD4/VHL E3 ligase in 12 hrs BODIPY-TZ treated human T47D cells assessed as degradation of BRD4 expression incubated for 48 hrs by Western blot analysis; assay type: cell-based
[27] = target: T1, von Hippel-Lindau disease tumor suppressor/Bromodomain-containing protein 4; test: PROTAC activity at BRD4/VHL E3 ligase in 12 hrs BODIPY-TZ treated human MCF7 cells assessed as degradation of BRD4 expression incubated for 48 hrs by Western blot analysis; assay type: cell-based
[28] = target: T1, von Hippel-Lindau disease tumor suppressor/Bromodomain-containing protein 4; test: PROTAC activity at BRD4/VHL E3 ligase in 12 hrs BODIPY-TZ treated human MDA-MB-231 cells assessed as reduction in BRD4 expression at upto 2.0 uM incubated for 48 hrs by Western blot analysis; assay type: cell-based
[29] = target: T1, von Hippel-Lindau disease tumor suppressor/Bromodomain-containing protein 4; test: PROTAC activity at BRD4/VHL E3 ligase in human T47D cells assessed as induction of degradation of intracellular BRD4 at 200 nM incubated for 48 hrs by immunofluorescence staining assay; assay type: cell-based
[30] = target: T1, von Hippel-Lindau disease tumor suppressor/Bromodomain-containing protein 4; test: PROTAC activity at BRD4/VHL E3 ligase in human MCF7 cells assessed as decrease in BRD4 expression at upto 2.0 uM incubated for 48 hrs by Western blot analysis; assay type: cell-based
T47D [31] = test: Cytotoxicity against human T47D cells assessed as inhbition of cell growth measured after 48 hrs by CCK-8 method; assay type: functional, cell-based
[32] = target: T1, von Hippel-Lindau disease tumor suppressor/Bromodomain-containing protein 4; test: PROTAC activity at BRD4/VHL E3 ligase in 12 hrs BODIPY-TZ treated human T47D cells assessed as suppression of c-Myc expression incubated for 48 hrs by Western blot analysis; assay type: cell-based

In the case of `CC1=CC(C)=[N+]2C1=C(c1cccc(-c3nnc(C)nn3)c1)c1c(C)cc(C)n1[B-]2(F)F`, the Activity [1] is reported as “inactive”, the IC50 (MDA-MB-231 [2]) is reported as 326 nM and the Activity [3] is reported as “Active”. For the same compound, the Activity [4] was “Active”, the Activity [5] was “Active” and the Activity [6] was “Active”. The “fold change (FC)” value (MCF7 [7]) was 5.98, the Activity (MCF7 [8]) was “Active” and the IC50 (T47D [9]) was 407 nM. The Activity [10] was “inactive”, the Activity [11] was “inactive” and the “fold change (FC)” value (MCF7 [12]) was 1.74. For the same compound, the Retention_time [13] was 19.92 min, the Activity [14] was “inactive” and the IC50 (MCF7 [15]) was 264 nM. For the same compound, the Activity (MCF7 [16]) was “Active”, the Activity [17] was “inactive” and the IC50 (MDA-MB-231 [18]) was 652 nM. For the same compound, the Activity [19] was “Active”, the Activity [20] was “inactive” and the Activity [21] was “Active”. For the same compound, the Drug uptake [22] was “Active”, the Activity (MCF7 [23]) was “inactive” and the IC50 (MCF7 [24]) was 1320 nM. The Activity [25] was “Toxic”, the Activity [26] was “Active” and the Activity [27] was “Active”. The Activity [28] was “Active”, the Activity [29] was “inactive” and the Activity [30] was “inactive”. For the same compound, the IC50 (T47D [31]) was 1760 nM and the Activity [32] was “Active”.
